Laboratory results from patent US20210269411A1, “COMFREYNS, ARYLNAPHTHALENE LIGNANS THAT INHIBIT PRO-INFLAMMATORY GENE EXPRESSION, AND PHARMACEUTIC COMPOSITION COMPRISING THEM” (The Procter & Gamble Company, priority 2020, published 2021).
Several values for one entry are separate records, joined by “and”; a condition that tells them apart may be missing. Identical values can stand only once.

Test system: IL-1β induced E-selectin expression
Assay: Inhibition of IL-1β induced E-selectin (SELE) mRNA expression in primary HUVEC, real time PCR
Type: cell-based, human
Conditions: for Max. Inhibition (%) / EC [μM] (effective concentration): HUVEC pre-incubated 30 min with compound, then 5 ng/mL IL-1β for 90 min; for Max. Inhibition (%): SELE mRNA by qPCR, at the effective concentration; for EC [μM] (effective concentration): SELE mRNA normalized to GAPDH, at least three independent experiments; for Inhibitory activity against E-selectin expression (in words): IL-1β stimulated HUVEC, 5 ng/mL IL-1β for 90 min
Experimental: J. Seigner et al. (Frontiers in Pharmacology 10.3389/fphar.2019.00289) reported recently that interleukin-1β (IL-1β) induced E-selectin mRNA levels were inhibited by a comfrey extract by approximately 70% at the starting concentration of 20 μg/ml. E-selectin is a NF-κB-dependent target gene and IL-1β is a well-described pro-inflammatory mediator that exerts an important role in the regulation of immune and inflammatory responses, in particular those involving sterile insults such as trauma and blunt injuries. […] Thus, the anti-inflammatory activity of individual compounds 1, 5, 12 and 14, was tested using IL-1-stimulated HUVEC cells and analyzed by real time PCR determining the fold change in mRNA expression of E-selectin. These were compared to the inhibitory activity of the new arylnaphthalene lignan comfreyn A (15) and globoidnan B (8), malaxinic acid (9) and caffeic acid ethyl ester (16), the latter three identified first time in S. officinale as disclosed herein.
Therefore, primary HUVEC cells were isolated from umbilical cords as described by M. Hoeth et al., Guidance Molecules in Human Endothelial Cells, Plos One 7, 2012 and maintained in M199 medium (Lonza) supplemented with 20% FCS (Sigma), 2 mM L-glutamine (Sigma), penicillin (100 units/mL), streptomycin ([…]), 5 units/mL heparin, and […] ECGS (Promocell), and were used up to passage 5. HUVEC cell were pre-incubated with various concentration of purified compounds (1, 5, 8, 9, 12, 14, 15 and 16) for 30 minutes following stimulation with 5 ng/mL IL-1β (R&D Systems) for 90 min. Cells were then analyzed for the change in mRNA expression of E-Selectin (SELE). Therefore, total RNA was isolated using the PeqGold Total RNA Isolation Kit (VWR International) according to the manufacturer's instructions. 1 μg RNA was reverse transcribed using random hexamers (Fermentas) and murine leukemia virus reverse transcriptase (Thermo Scientific Fisher). Primers were designed using the software “Primer3”. Following primer sequences were used for qPCR: glyceraldehyde 3-phosphate dehydrogenase (GAPDH) forward, 5′-AGAAGGCTGGGGCTCATTT-3′ and reverse, 5′-[…]-3′; E-Selectin (SELE) forward, 5′-CCTGTGAAGCTCCCACTGA-3 and reverse 5′-[…]-3′. Real-time PCR was done with the SsoAdvanced Universal SYBR Green Supermix (BioRad) using the StepOnePlus instrument (Applied Biosystems), and relative mRNA expression normalized to GAPDH. Fold changes in mRNA expression were calculated according to the 2-ΔΔCT method.

SMILES | Max. Inhibition (%) | EC [μM] (effective concentration) | Inhibitory activity against E-selectin expression (in words) | further results
CCOC(=O)/C=C/c1ccc(O)c(O)c1 [Compound 16, caffeic acid ethyl ester] | 70% | 64 µM | – | –
O=Cc1ccc(O)c(O)c1 [Compound 5, protocatechuic aldehyde] | – | 120 µM | – | –
O=C(/C=C/c1ccc(O)c(O)c1)O[C@H](Cc1ccc(O)c(O)c1)C(=O)O [Compound 12, rosmarinic acid] | – | – | do not show any inhibitor activity | –
CCOC(=O)c1cc2cc(O)c(O)cc2c2c1c(=O)oc1cc(O)c(O)cc12 [Compound 15, comfreyn A] | 50% and 52% | 50 µM | – | Inhibitory activity against E-selectin expression (in words) (listed as Comfreyn A): inhibition of E-selectin expression; Inhibitory activity against E-selectin expression (in words) (listed as comfreyn A): inhibit the expression of E-selecting mRNA
O=C(O[C@H](Cc1ccc(O)c(O)c1)C(=O)O)c1cc(-c2ccc(O)c(O)c2)c2cc(O)c(O)cc2c1 [Compound 14, globoidnan A] | 35% | 40 µM | – | –
NC(=O)NC1NC(=O)NC1=O (stereo not shown) [Compound 1, allantoin] | – | – | do not show any inhibitor activity | –
O=C(O[C@H](Cc1ccc(O)c(O)c1)C(=O)O)C1=Cc2cc(O)c(O)cc2[C@H](c2ccc(O)c(O)c2)[C@H]1C(=O)O [Compound 8, globoidnan B] | – | – | did not show any inhibitory activity | –
CC(C)=CCc1cc(C(=O)O)ccc1O[C@@H]1O[C@H](CO)[C@@H](O)C(O)[C@H]1O (stereo partly shown) [Compound 9, malaxinic acid] | – | 108 µM | – | –
